Test results: US12629351B2, “HDAC inhibitors for idiopathic pulmonary fibrosis and other lung inflammatory disorders” (COUNCIL OF SCIENTIFIC AND INDUSTRIAL RESEARCH (AN INDIAN …, priority 2020, dated 2026)

Assays:
NHLF cells = assay: q-RT-PCR gene expression in TGF-β1 stimulated NHLF cells; assay type: cell-based, human
Experimental: (§1) LL29 cells (lung fibroblasts from IPF patient) were purchased from ATCC and cultured in Ham's F-12K medium supplemented with 15% FBS. Primary lung fibroblasts cells, NHLF and DHLF-IPF cells were purchased from LONZA and cultured in FGF-2 medium with FGF, Insulin and FBS. All the cells were maintained in a humidified atmosphere of 95% air with 5% CO2 at 37° C.
(§2) Cells were pre-treated with HDAC-inhibitors (COMPOUND-109, COMPOUND-108 and COMPOUND-107) for 2 hours in serum free media and then human recombinant TGF-β (R&D Systems, Minneapolis, MN) was added at a concentration of 5 ng/mL and cultured for 72 hours for all the experiments.
(§3) RNA isolation was carried out using Trizol as described^12,13. RNA was isolated using Trizol-chloroform method and total RNA was quantified using nano-drop, 1 μg of RNA was used for cDNA synthesis using primescript cDNA synthesis kit (Takara bio) according to manufacturer's instructions. Primers for EMT (Fibronectin1 (FN1), Vimentin, α-SMA and Snail) markers, ECM markers (Timp1, Timp3 and LoxL2), Collagen markers (Collagen 1α1 (Col1) and Collagen 3α1[…] and housekeeping markers (β2M and β-actin) were designed using Primer 3 software and all primer sequences were listed in Table 1. Real time quantitative PCR (qRT-PCR) was carried out using SYBR green master mix and the differences in mRNA expression of all the gene levels were calculated as the fold change using the formula 2-ΔΔct. In all Q-RT-PCR data plots, vehicle control fold change was normalized to 1.

LL29 cells = assay: q-RT-PCR gene expression in TGF-β1 stimulated LL29 cells; assay type: cell-based, human
Experimental: as §1, §2, §3

[1] = tested on: NHLF, DHLF and LL29 cells; assay: q-RT-PCR gene expression in TGF-β1 stimulated cells, statements not split by cell line; assay type: cell-based, human; details: for HDAC-8 levels (gene expression): TGF-β1 stimulated, other concentrations
Experimental: as §1, §2, §3

[2] = tested on: BLM-induced pulmonary fibrosis; assay: Bleomycin (BLM) induced pulmonary fibrosis model; assay type: in vivo, Wistar rats; details: for ALP levels / LDH levels: BALF, oral, daily for 14 days; for BLM induced thickened alveolar walls, inflammatory cells infiltration, deposition of collagen fibers (histopathology): H&E (Fibrosis score) and Masson's staining (Ashcroft score), compared BLM alone group; for BLM-induced inflammation, fibrotic marker expression and pathological changes in lung tissues: collective in-vivo conclusion
Experimental: as §3
Adult female Wistar rats (180-200 g, n=50) at the age of 8-10 weeks were used to develop bleomycin induced pulmonary fibrosis model. All animals were kept under constant environmental and nutritional conditions throughout the experimental period. The research protocol complies with the ethical guidelines of experimental research; “Institutional Animal Ethics Committee” (CPSCEA Registration No. 97/GO/RBi/S/1999/CPCSEA and study approval No. IICT/056/2019), CSIR-IICT, Hyderabad.
Except 8 animals (Sham control), pulmonary fibrosis was induced in remaining all animals (32 Wistar rats) by intratracheal instillation of BLM (5 mg/kg) as sulfate salt dissolved in 1 mL of normal saline. Rats were anesthetized using ketamine and xylazine (80 mg/kg and 15 mg/kg respectively as per body weight, I.P.). BLM was administered intratracheally into the lungs of the rats.
Pulmonary fibrosis was induced by a single intratracheal instillation of BLM (5 mg/kg) to the set of animals (n=40) excluding sham control animals (n=8)^14. BLM was dissolved in saline to attain the concentration of 5 mg/ml. Animals were anesthetized with ketamine (80 mg/kg) and xylazine (10 mg/kg). BLM was administered intratracheal (5 mg/kg) to the anesthetized Wistar rats and saline was administered intratracheally in to sham control animals. […] Further, these animals were randomized into four groups (as described in Table-2) apart from sham control (8 rats/group).
As described in the grouping pattern Table 2 and 3, animals were grouped and administered the compounds orally in the form of gum-acacia suspension (0.25%) daily for 14 days. Sham control (without bleomycin) animals were used as a control for bleomycin control (disease control) and administered everyday 0.5 mL of saline for 14 days orally. After the treatment period, BALF fluid was collected from 4 animals in each group and lungs were collected from another 4 animals for ex-vivo experiments and histopathological observations.
(§4) In 4 animals from each group, the thoracic cavity was opened and the tracheas were exposed, cannulated and 3 mL sterile 0.9% saline was slowly infused into the lungs. BALF was centrifuged at 2000 rpm, 4 ° C. for 10 min using cooling centrifuge. The sedimented cell pellets were pooled and re-suspended in 500 μl of sterile saline to quantify inflammatory cell counts; supernatant BLAF was examined for ALP and LDH parameters using auto-analyzer.
Collagen deposition was determined by measuring the total hydroxyproline content in wet lung tissue, which was measured by a hydroxyproline assay kit (abcam), according to the manufacturer's protocol. In brief, lungs were homogenized in sterile distilled water, alkalized using 10N NaOH and heated at 120° C. for 1 hour. Following alkaline hydrolysis samples were neutralized using 10N concentrated HCL. Then samples were into 96 well plate along with standards and kept for evaporation at 65° C. Then samples were oxidized by adding oxidation mixture followed by addition of developer and incubated at 37° C. for 5 min. […]

LPS induced ARDS = LPS induced ARDS model; assay type: in vivo, SD rats
Experimental: as §3
Treatment group animals were treated with HDACi (COMPOUND-108) for 7 days at the doses of (1.5 mg/kg and 3 mg/kg), after the treatment period animals were subjected to ARDS instillation by intratracheally. Rats were anesthetized using ketamine and xylazine (80 mg/kg and 20 mg/kg, respectively as per body weight, I.P.). Except 8 animals (Sham control), ARDS was induced in remaining all animals (24 SD rats) by intratracheal instillation of Lipopolysachharide (5 mg/kg) dissolved in normal saline.
as §4
A portion of the pulmonary lobe was harvested, rinsed with ice-cold phosphate buffer saline, and fixed with 10% neutral-buffered formalin, embedded in paraffin wax, sectioned (6 μm) and stained with H&E and Masson's trichrome. Three serial slices of 3 μm thickness each 50 μm apart of both lung lobes were stained with Masson's Trichrome. The slides were analyzed with a microscope in a random order using an (10×) objective. The severity of fibrosis and alveolitis in lung tissues (using H&E and Masson's trichrome staining) was semi-quantitatively assessed by a pathologist in a blinded fashion via Ashcroft scoring system^15. The structural alterations of tissue were assessed based on the degree haemorrhage, emphysema, alveolar wall thickening, inflammatory lesions and collagen deposition or fibrosis^16.

| Structure (SMILES) | vimentin levels (NHLF cells) | α-SMA levels (NHLF cells) | vimentin levels (LL29 cells) | α-SMA levels (LL29 cells) | HDAC-8 levels (gene expression) [1] | HDAC-6 mRNA levels ([1]; summary of Example 2) | ALP levels [2] | LDH levels [2] | BLM induced thickened alveolar walls, inflammatory cells infiltration, deposition of collagen fibers (histopathology) [2] | BLM-induced inflammation, fibrotic marker expression and pathological changes in lung tissues [2] | other results |
| --- | --- | --- | --- | --- | --- | --- | --- | --- | --- | --- | --- |
| Cn1cc(-c2cc(O)cc(F)c2)c2cc(NS(=O)(=O)c3ccc(C(=O)NO)cc3)ccc21 [COMPOUND-107, 4-(N-(3-(3-fluoro-5-hydroxyphenyl)-1-methyl-1H-indol-5-yl)sulfamoyl)-N-hydroxyl benzamide] | highly reduced | highly reduced | highly reduced | highly reduced | did not modulate | could inhibit only HDAC-6 mRNA levels |  |  |  |  | Snail levels (LL29 cells; 10 and 20 μM): highly down-regulated |
| Cn1cc(-c2cccc(Cl)c2)c2cc(NS(=O)(=O)c3ccc(C(=O)NO)cc3)ccc21 [COMPOUND-108, 4-(N-(3-(3-chlorophenyl)-1-methyl-1H-indol-5-yl)sulfamoyl)-N-hydroxybenzamide] | highly reduced | highly reduced | highly reduced | highly reduced | did not modulate | potentially inhibits | reduced in dose dependently | reduced in dose dependently | reduced | could effectively protect | HDAC-8 levels (gene expression) (NHLF cells; 2.5 μM): reduced; HDAC-8 levels (gene expression) (LL29 cells; 2.5 μM): reduced; Snail levels (LL29 cells; 5 and 10 μM): highly down-regulated; HDAC-8 mRNA levels ([1]; summary of Example 2): potentially inhibits; fibrotic alterations in BLM challenged rat lung tissues ([2]; statement in embodiment): most effectively ameliorated; lung injury and infiltration of inflammatory cells (histopathology) (LPS induced ARDS; 1.5 mg/kg): significant (p<0.01) reduction; LPS induced Neutrophil count in blood (LPS induced ARDS; 3 mg/kg): significantly attenuated; lung injury and infiltration of inflammatory cells (histopathology) (LPS induced ARDS; 3 mg/kg): significant (p<0.01) reduction; plasma IL-6 Levels (LPS induced ARDS; 3 mg/kg, at both the time points): reduced; LPS induced infiltration of Neutrophils (LPS induced ARDS; BALF): significantly attenuated; LPS induced infiltration of WBC (LPS induced ARDS; BALF): significantly attenuated; LPS induced expression of inflammatory markers (IL-6, IL-1β, CCl2, Cox-2, CXCL-6, CCL-7, CXCL-1, CXCL-10) (LPS induced ARDS; lung tissues, mRNA, dose dependent manner): significantly attenuated; LPS induced inflammatory marker's expression (CXCL-11, TLR-3 and INF-γ) (LPS induced ARDS; lung tissues, mRNA, in dose dependent manner): significantly attenuated; pathological consequences (LPS induced), H&E (LPS induced ARDS; pre-treatment at 1.5 and 3 mg/kg doses): remarkably repressed; LPS induced Lung volume (index) (LPS induced ARDS; rat, in vivo): significantly attenuated; LPS induced spleen Indices (LPS induced ARDS; rat, in vivo): significantly attenuated; lung pathological conditions (LPS induced ARDS; statement in embodiment): most effectively ameliorated |
| CCOc1ccc(-c2cn(C)c3ccc(NS(=O)(=O)c4ccc(C(=O)NO)cc4)cc23)cn1 [COMPOUND-109, 4-(N-(3-(6-ethoxypyridin-3-yl)-1-methyl-1H-indol-5-yl)sulfamoyl)-N-hydroxy benzamide] | not modulated | highly reduced | not modulated | highly reduced | did not modulate | could inhibit only HDAC-6 mRNA levels | reduced in dose dependently | reduced in dose dependently | reduced | could effectively protect |  |
